Test systems include SR; Malme-3M; RPMI-8226; A549; SK-OV-3; OVCAR-3; UO-31; M14; COLO 205; PC-3; EKVX; KM12; SK-MEL-28; SK-MEL-5; HCT-15; NCI-H460; UACC-62; MOLT-4; HCC 2998; OVCAR-5.
Holding throughout (assay): DTP human tumour cell line panel, 48 h

SMILES strings stand for the structures.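 Exposure lasted 48 hours, with cells grown in 96-well plates and compounds tested at five concentrations. Abbreviation: GI50, concentration required for 50% inhibition of growth.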 Calls of active or inactive are those of the source. No stated cut-off is given here; in the data, active = GI50 up to about 1.1 µM and inactive = higher.

Take `O=c1[nH]c2nccnc2c2c([N+](=O)[O-])cccc12`: the GI50 in the test with SR, with Malme-3M, with RPMI-8226, in the test on A549, with SK-OV-3 and in the test with OVCAR-3 was > 100 µM (inactive) throughout. Besides, the GI50 is 44.1 µM (inactive) in the test on UO-31; > 100 µM (inactive) in the test on M14; > 100 µM (inactive) in the test with COLO 205; 78.9 µM (inactive) in the test with PC-3; > 100 µM (inactive) with EKVX; > 100 µM (inactive) in the test with KM12. The GI50 in the test on SK-MEL-28 is > 100 µM (inactive); with SK-MEL-5, 88.3 µM (inactive); in the test with HCT-15, above 100 µM; with NCI-H460, > 100 µM (inactive); in the test on UACC-62 it was > 100 µM (inactive); in the test on MOLT-4 it was > 100 µM (inactive). In addition, the GI50 in the test on HCC 2998 and in the test on OVCAR-5 was > 100 µM (inactive) in each case.

In the case of `CC(C)Cc1cc2c(cc1O)CCC1C2CC[C@@]2(C)C1CC[C@@H]2O` (stereo partly drawn), the GI50 in the test on SR was 3.85 µM (inactive); in the test with Malme-3M, 17.7 µM (inactive); with RPMI-8226 it was 3.74 µM (inactive); in the test on A549, 6.84 µM (inactive); in the test with SK-OV-3, 8.17 µM (inactive); in the test on OVCAR-3, 5.57 µM (inactive). For the same molecule, the GI50 is 4.05 µM (inactive) in the test with UO-31; 7.87 µM (inactive) with M14; 15.2 µM (inactive) in the test on COLO 205; 6.35 µM (inactive) with PC-3; 8.69 µM (inactive) with EKVX; 6.55 µM (inactive) with KM12. The GI50 with SK-MEL-28 was 10.6 µM (inactive); with SK-MEL-5 it was 7.45 µM (inactive); in the test on HCT-15, 7.21 µM; in the test with NCI-H460, 10.5 µM (inactive); with UACC-62 it was 7.71 µM (inactive); in the test on MOLT-4, 3.5 µM (inactive). Further, the GI50 was 13.1 µM (inactive) in the test on HCC 2998 and 16.1 µM (inactive) in the test on OVCAR-5.

As for `COc1c(O)ccc2c1CN1CCc3cc4c(cc3C1C2)OCO4` (stereo not drawn), the GI50 is 0.441 µM (active) in the test with SR; 33.9 µM (inactive) in the test with Malme-3M; 32.4 µM (inactive) in the test with RPMI-8226; 32.5 µM (inactive) in the test with A549; 23.1 µM (inactive) in the test on SK-OV-3; 26.4 µM (inactive) in the test with OVCAR-3. In addition, the GI50 is 29.6 µM (inactive) in the test on UO-31; 34.8 µM (inactive) with M14; 36.1 µM (inactive) in the test on COLO 205; 23.4 µM (inactive) in the test on PC-3; 47.8 µM (inactive) in the test on EKVX; 22.1 µM (inactive) in the test on KM12. For the same molecule, the GI50 in the test on SK-MEL-28 is 45.1 µM (inactive); in the test on SK-MEL-5, 35 µM (inactive); in the test with HCT-15 it was 21.6 µM; in the test with NCI-H460, 18.4 µM (inactive); in the test with UACC-62, 27.5 µM (inactive); in the test with MOLT-4, 2.43 µM (inactive). Moreover, the GI50 in the test with HCC 2998 is 31.6 µM (inactive); in the test on OVCAR-5, > 65.5 µM (inactive).

Turning to `O=Cc1[nH]c(=O)[nH]c(=O)c1C(=O)O`, the GI50 with SR, in the test on Malme-3M, in the test with RPMI-8226, with A549, with SK-OV-3 and with OVCAR-3 was > 100 µM (inactive) throughout. The GI50 with UO-31, in the test on M14, in the test with COLO 205, in the test with PC-3, with EKVX and in the test with KM12 was > 100 µM (inactive) throughout. For the same molecule, the GI50 with SK-MEL-28 was > 100 µM (inactive); in the test on SK-MEL-5, > 100 µM (inactive); with HCT-15, above 100 µM; with NCI-H460, > 100 µM (inactive); in the test on UACC-62, > 100 µM (inactive); in the test on MOLT-4, > 100 µM (inactive). Moreover, the GI50 with HCC 2998 and in the test with OVCAR-5 was > 100 µM (inactive) in each case.

Take `COC(C)(C)C1=CCC(C)CC1` (stereo not drawn): the GI50 is 24 µM (inactive) with SR; > 100 µM (inactive) with Malme-3M; > 100 µM (inactive) with RPMI-8226; > 100 µM (inactive) in the test on A549; > 100 µM (inactive) with SK-OV-3; > 100 µM (inactive) in the test on OVCAR-3. In addition, the GI50 in the test on UO-31, in the test with M14, in the test with COLO 205, in the test on PC-3, in the test with EKVX and with KM12 was > 100 µM (inactive) throughout. In addition, the GI50 is > 100 µM (inactive) in the test with SK-MEL-28; > 100 µM (inactive) with SK-MEL-5; above 100 µM in the test with HCT-15; > 100 µM (inactive) with NCI-H460; > 100 µM (inactive) in the test on UACC-62; 30 µM (inactive) in the test with MOLT-4. Besides, the GI50 in the test on HCC 2998 and in the test with OVCAR-5 was > 100 µM (inactive) each time.

Consider `S=C(N/N=C(/c1ccccc1)c1ccccn1)N1CCCCC1`, for which the GI50 in the test on SR was < 0.0166 µM (active); with Malme-3M, 0.441 µM (active); with RPMI-8226 it was < 0.0202 µM (active); in the test with A549, < 0.0302 µM (active); in the test with SK-OV-3, < 0.0387 µM (active); in the test with OVCAR-3, 0.01 µM (active). The GI50 was 0.0716 µM (active) in the test with UO-31; 0.001 µM (active) with M14; < 0.0214 µM (active) in the test on COLO 205; < 0.0151 µM (active) in the test on PC-3; < 0.0318 µM (active) in the test with EKVX; < 0.0292 µM (active) in the test with KM12. For the same molecule, the GI50 in the test on SK-MEL-28 is 0.604 µM (active); in the test on SK-MEL-5, < 0.0249 µM (active); in the test on HCT-15, below 0.0234 µM; in the test with NCI-H460 it was < 0.0211 µM (active); with UACC-62, 0.16 µM (active); in the test with MOLT-4, < 0.0135 µM (active). In addition, the GI50 is 0.219 µM (active) with HCC 2998 and 0.0455 µM (active) in the test with OVCAR-5.

As to `COc1cc(CNC(=O)CCCCCCCCCCSSCCCCCCCCCCC(=O)NCc2ccc(O)c(OC)c2)ccc1O`, the GI50 in the test on SR, in the test on Malme-3M, in the test with RPMI-8226, with A549, in the test on SK-OV-3 and in the test with OVCAR-3 was > 10 µM (inactive) in each case. The GI50 in the test on M14, in the test with COLO 205, in the test with PC-3, in the test with EKVX, with KM12 and in the test with SK-MEL-28 was > 10 µM (inactive) in each case. For the same molecule, the GI50 was > 10 µM (inactive) with SK-MEL-5; above 10 µM in the test with HCT-15; > 10 µM (inactive) in the test on NCI-H460; > 10 µM (inactive) in the test with UACC-62; > 10 µM (inactive) in the test on MOLT-4; > 10 µM (inactive) in the test on HCC 2998. Moreover, the GI50 in the test on OVCAR-5 is > 10 µM (inactive).

`CON(C)C(=O)C(C)NC(=O)OCc1ccccc1` (stereo not drawn): the GI50 in the test on SR, in the test on Malme-3M, with RPMI-8226, with A549, with SK-OV-3 and with OVCAR-3 was > 100 µM (inactive) in each case. Also, the GI50 in the test on UO-31, with M14, in the test with PC-3, in the test on EKVX, with KM12 and with SK-MEL-28 was > 100 µM (inactive) each time. The GI50 is > 100 µM (inactive) with SK-MEL-5; above 100 µM with HCT-15; > 100 µM (inactive) in the test with NCI-H460; > 100 µM (inactive) in the test on UACC-62; > 100 µM (inactive) in the test on MOLT-4; > 100 µM (inactive) in the test on HCC 2998. The GI50 in the test on OVCAR-5 is > 100 µM (inactive).
